Results from patent publication US20240360174A1, “CELL-PENETRATING PEPTIDE SEQUENCES” (Ohio State Innovation Foundation, priority 2016, published 2024).
Square brackets hold non-standard residues; d marks the D form. Phe(4-F) = N[C@@H](Cc1ccc(F)cc1)C(=O)O; 2Nal = N[C@@H](Cc1ccc2ccccc2c1)C(=O)O; d2Nal = N[C@H](Cc1ccc2ccccc2c1)C(=O)O; Pip = O=C(O)[C@@H]1CCCCN1

Test system: HeLa cells
Assay: Cellular uptake / cytosolic delivery efficiency of NF-labelled peptides by flow cytometry
Format: cell-based
Settings: 2 h, 5 mM naphthofluorescein-labelled peptide, relative to CPP 1 (100%), mean ± S.D. of three independent experiments
Description: Absolute cytosolic delivery efficiency is the ratio of cytosolic concentration of a CPP (or a CPP-cargo conjugate) over the concentration of the CPP (or the CPP-cargo conjugate) in the growth medium. Relative cytosolic delivery efficiency refers to the concentration of a CPP in the cytosol compared to the concentration of a control CPP in the cytosol. Quantification can be achieved by fluorescently labeling the CPP (e.g., with a FTIC dye) and measuring the fluorescence intensity using techniques well-known in the art.
In particular embodiments, relative cytosolic delivery efficiency is determined by comparing (i) the amount of a CPP of the invention internalized by a cell type (e.g., HeLa cells) to (ii) the amount of the control CPP internalized by the same cell type. To measure relative cytosolic delivery efficiency, the cell type may be incubated in the presence of a cell-penetrating peptide of the invention for a specified period of time (e.g., 30 minutes, 1 hour, 2 hours, etc.) after which the amount of the CPP internalized by the cell is quantified using methods known in the art, e.g., fluorescence microscopy. Separately, the same concentration of the control CPP is incubated in the presence of the cell type over the same period of time, and the amount of the control CPP internalized by the cell is quantified.
To determine cellular uptake efficiency of the CPPs disclosed herein, HeLa cells were cultured in 12-well plates (1.5×10^5 cells per well) overnight. The cells were incubated for 2 h with […] naphthofluorescein (NF)-labelled peptide in cellular media. At the end of incubation, the cells were washed with DPBS twice, detached from the plate with 0.25% trypsin, diluted into clear DMEM, pelleted at 250 g for 5 min, washed twice with DPBS, resuspended in DPBS, and analyzed on a BD FACS LSR II flow cytometer. For NF-labelled peptides, a 633-nm laser was used for excitation and the fluorescence emission was analyzed in the APC channel. Absolute cellular uptake efficiency was determined by comparing the concentration (via fluorescence intensity) of the CPP in the cytosol to the concentration in the extracellular medium.

In the case of “cyclo(Pip-Nal-phe-Arg-arg-arg-glu) (cyclo([Pip][2Nal][dF]R[dR][dR][dE]); SMILES N=C(N)NCCC[C@@H]1NC(=O)[C@@H](Cc2ccccc2)NC(=O)[C@H](Cc2ccc3ccccc3c2)NC(=O)[C@@H]2CCCCN2C(=O)[C@@H](CCC(=O)O)NC(=O)[C@@H](CCCNC(=N)N)NC(=O)[C@@H](CCCNC(=N)N)NC1=O) [Pin1 21]”, the “Relative Cytosolic Delivery Efficiency” value is reported as 27 ± 15%.

With cyclo(RFFFRRRQ) (cyclic) [SAR 48] the “Relative Cytosolic Delivery Efficiency” value was 167 ± 10%.

With cyclo(RFFRFRQ) (cyclic) [SAR 43] the “Relative Cytosolic Delivery Efficiency” value was 96 ± 31%.

cyclo(RFFRRRQ) (cyclic) [SAR 31] was tested, and the “Relative Cytosolic Delivery Efficiency” value was 63 ± 19%.

With cyclo(RFFRRRRQ) (cyclic) [SAR 46] the “Relative Cytosolic Delivery Efficiency” value was 104 ± 5%.

cyclo(RFRRFRQ) (cyclic) [SAR 32] was tested, and the “Relative Cytosolic Delivery Efficiency” value was 94 ± 9%.

In the case of cyclo(RRFFFRQ) (cyclic) [SAR 37], the “Relative Cytosolic Delivery Efficiency” value is reported as 172 ± 24%.

cyclo(RRFFFRRQ) (cyclic) [SAR 49] was tested, and the “Relative Cytosolic Delivery Efficiency” value was 112 ± 20%.

With cyclo(RRFFRRRQ) (cyclic) [SAR 47] the “Relative Cytosolic Delivery Efficiency” value was 115 ± 20%.

In the case of “cyclo(XXRRRRQ) (cyclo([Phe(4-F)][Phe(4-F)]RRRRQ); SMILES N=C(N)NCCC[C@@H]1NC(=O)[C@H](CCCNC(=N)N)NC(=O)[C@H](CCCNC(=N)N)NC(=O)[C@H](Cc2ccc(F)cc2)NC(=O)[C@H](Cc2ccc(F)cc2)NC(=O)[C@H](CCC(N)=O)NC(=O)[C@H](CCCNC(=N)N)NC1=O) [SAR 56]”, the “Relative Cytosolic Delivery Efficiency” value is reported as 165 ± 22%.

“cyclo(fFfRrRQ) (cyclo([dF]F[dF]R[dR]RQ); SMILES N=C(N)NCCC[C@@H]1NC(=O)[C@@H](CCCNC(=N)N)NC(=O)[C@H](CCCNC(=N)N)NC(=O)[C@@H](Cc2ccccc2)NC(=O)[C@H](Cc2ccccc2)NC(=O)[C@@H](Cc2ccccc2)NC(=O)[C@H](CCC(N)=O)NC1=O) [SAR 59]” was tested, and the “Relative Cytosolic Delivery Efficiency” value was 185 ± 91%.

For “cyclo(fFfrRrQ) (cyclo([dF]F[dF][dR]R[dR]Q); SMILES N=C(N)NCCC[C@@H]1NC(=O)[C@@H](CCCNC(=N)N)NC(=O)[C@@H](Cc2ccccc2)NC(=O)[C@H](Cc2ccccc2)NC(=O)[C@@H](Cc2ccccc2)NC(=O)[C@H](CCC(N)=O)NC(=O)[C@@H](CCCNC(=N)N)NC1=O) [SAR 58]”, the “Relative Cytosolic Delivery Efficiency” value was 280 ± 106%.

In the case of “cyclo(fFΦrRrQ) (cyclo([dF]F[d2Nal][dR]R[dR]Q); SMILES N=C(N)NCCC[C@@H]1NC(=O)[C@@H](CCCNC(=N)N)NC(=O)[C@@H](Cc2ccc3ccccc3c2)NC(=O)[C@H](Cc2ccccc2)NC(=O)[C@@H](Cc2ccccc2)NC(=O)[C@H](CCC(N)=O)NC(=O)[C@@H](CCCNC(=N)N)NC1=O) [SAR 61]”, the “Relative Cytosolic Delivery Efficiency” value is reported as 330 ± 101%.

“cyclo(fΦfrRrQ) (cyclo([dF][2Nal][dF][dR]R[dR]Q); SMILES N=C(N)NCCC[C@@H]1NC(=O)[C@@H](CCCNC(=N)N)NC(=O)[C@@H](Cc2ccccc2)NC(=O)[C@H](Cc2ccc3ccccc3c2)NC(=O)[C@@H](Cc2ccccc2)NC(=O)[C@H](CCC(N)=O)NC(=O)[C@@H](CCCNC(=N)N)NC1=O) [SAR 62]” was tested, and the “Relative Cytosolic Delivery Efficiency” value was 357 ± 59%.

With “cyclo(fΦrRrQ) (cyclo([dF][2Nal][dR]R[dR]Q); SMILES N=C(N)NCCC[C@@H]1NC(=O)[C@@H](CCCNC(=N)N)NC(=O)[C@H](Cc2ccc3ccccc3c2)NC(=O)[C@@H](Cc2ccccc2)NC(=O)[C@H](CCC(N)=O)NC(=O)[C@@H](CCCNC(=N)N)NC1=O) [SAR 65]” the “Relative Cytosolic Delivery Efficiency” value was 172 ± 37%.

In the case of “cyclo(ΦFfrRrQ) (cyclo([d2Nal]F[dF][dR]R[dR]Q); SMILES N=C(N)NCCC[C@@H]1NC(=O)[C@@H](CCCNC(=N)N)NC(=O)[C@@H](Cc2ccccc2)NC(=O)[C@H](Cc2ccccc2)NC(=O)[C@@H](Cc2ccc3ccccc3c2)NC(=O)[C@H](CCC(N)=O)NC(=O)[C@@H](CCCNC(=N)N)NC1=O) [SAR 63]”, the “Relative Cytosolic Delivery Efficiency” value is reported as 50 ± 9%.
